In article PMC12395308 (ACS Central Science, 2025):
Blank lines part the entries; values can stand above or below the molecule they belong to.

Legend:
[1] = Lipophilicity (logD) by shake flask method
[2] = Aqueous stability in acidic and basic buffer (HPLC); settings: post 24 h of incubation; for chemical stability, pH (7.6): percentage of parent remaining: basic buffer; for chemical stability, pH (3.0): percentage of parent remaining: acidic buffer
[3] = Bioconversion of prodrugs in plasma, ex vivo (mice); settings: 200 μg/mL; for % of prodrug remaining at 20 h, mice plasma: 37 °C, ex vivo; for eAUC20m–20h in mice plasma, prodrug: 20 h ex vivo incubation
[4] = Bioconversion of prodrugs in plasma, ex vivo (human); settings: 200 μg/mL; for % of prodrug remaining at 20 h, human plasma: 37 °C, ex vivo; for eAUC20m–20h in human plasma, prodrug: 20 h ex vivo incubation
[5] = Chemical stability in neat DMSO (UV spectrophotometer); settings: post 24 h of incubation
[6] = In vivo plasma exposure after a single oral dose (RACE-PK); settings: single oral dose 10 mg/kg; for plasma eAUC20m–120m (AcINH) / plasma eAUC20m–120m (INH): n=3
[7] = Aqueous solubility in Tris HCl buffer (pH 7.4), shake flask method; settings: 37 °C, pH 7.4, aqueous buffer, thermodynamic from solid
[8] = In vivo plasma exposure after repetitive single oral dosing for 10 consecutive days; settings: 10th dose, oral, molar equivalent of 10 mg/kg INH
[9] = Stomach homogenate conversion assay; format: in vitro ADME, mice; settings: 50 μg/mL; for percentage of prodrug remaining after 20 h of incubation, stomach homogenate: ex vivo
[10] = Intestinal homogenate conversion assay; format: in vitro ADME, mice; settings: 50 μg/mL; for percentage of prodrug remaining after 20 h of incubation, intestine homogenate: ex vivo
[11] = Complete pharmacokinetic analysis after a single oral dose; settings: for concentration at 0.33 h / concentration at 1 h / concentration at 2 h / concentration at 4 h / concentration at 6 h / concentration at 24 h: Balb/C, mouse, plasma, po, 10 mg/kg of INH (prodrugs at molar equivalent); for plasma concentration of free INH (mean) / plasma concentration of released AcINH (mean) / plasma concentration of released INA (mean) / Vd, unchanged prodrug / plasma level of AcHz formed in vivo: single oral dose; for Vd, unchanged prodrug: molar equivalent of 10 mg/kg INH; for plasma level of AcHz formed in vivo: all time points 0.083–24 h

logD [1]: -0.01 | chemical stability, pH (7.6): percentage of parent remaining [2]: 100.0% | % of prodrug remaining at 20 h, mice plasma [3]: 13.8% | eAUC20m–20h in mice plasma, prodrug [3]: 1214 ± 758 ng·h/mL | % of prodrug remaining at 20 h, human plasma [4]: 47.5% | eAUC20m–20h in human plasma, prodrug [4]: 1402 ± 957 ng·h/mL | chemical stability, DMSO: percentage of parent remaining [5]: 100.0% | plasma concentration of AcINH at 20 min [6]: BLQ | plasma eAUC20m–120m (AcINH) [6]: BLQ ^d | solubility at 24 h ([7]; Tris HCl buffer): 326 mg/mL | eAUC20m–6h (AcHz) [8]: BLQ ^d
SMILES: CCOC(=O)NNC(=O)c1ccncc1.Cl [prodrug 1b]

logD [1]: 0.8 | chemical stability, pH (3.0): percentage of parent remaining [2]: 100.0% | chemical stability, pH (7.6): percentage of parent remaining [2]: 100.0% | eAUC20m–20h in mice plasma, prodrug [3]: 180 ± 36 ng·h/mL | eAUC20m–20h in human plasma, prodrug [4]: 640 ± 116 ng·h/mL | chemical stability, DMSO: percentage of parent remaining [5]: 100.0% | solubility at 24 h ([7]; Tris HCl buffer): 49.4 mg/mL | eAUC20m–6h (AcHz) [8]: BLQ ^d
SMILES: CCCCOC(=O)NNC(=O)c1ccncc1.Cl [prodrug 1e]

eAUC0–20h in stomach homogenate, prodrug [9]: 691,560 ng·h/mL | percentage of prodrug remaining after 20 h of incubation, stomach homogenate [9]: 29% | eAUC0–20h in intestinal homogenate, prodrug [10]: 761,596 ng·h/mL | percentage of prodrug remaining after 20 h of incubation, intestine homogenate [10]: 43% | logD [1]: 1.1 | chemical stability, pH (3.0): percentage of parent remaining [2]: 100.0% | chemical stability, pH (7.6): percentage of parent remaining [2]: 100.0% | eAUC20m–20h in mice plasma, prodrug [3]: 87 ± 85 ng·h/mL | eAUC20m–20h in human plasma, prodrug [4]: 465 ± 426 ng·h/mL | chemical stability, DMSO: percentage of parent remaining [5]: 100.0% | concentration at 0.33 h [11]: 6130 ng/mL | concentration at 1 h [11]: 433 ng/mL | concentration at 2 h [11]: 409 ng/mL | concentration at 4 h [11]: 884 ng/mL | concentration at 6 h [11]: 128 ng/mL | concentration at 24 h [11]: 120 ng/mL | plasma concentration of free INH (mean) ([11]; 4 h): BLQ | plasma concentration of released AcINH (mean) ([11]; 4 h): BLQ | plasma concentration of released INA (mean) ([11]; 4 h): BLQ | plasma concentration of free INH (mean) ([11]; 6 h): BLQ | plasma concentration of released AcINH (mean) ([11]; 6 h): BLQ | plasma concentration of released INA (mean) ([11]; 6 h): BLQ | plasma concentration of free INH (mean) ([11]; 24 h): BLQ | plasma concentration of released AcINH (mean) ([11]; 24 h): BLQ | plasma concentration of released INA (mean) ([11]; 24 h): BLQ | Vd, unchanged prodrug [11]: 2.899 ± 0.3 L/kg | plasma level of AcHz formed in vivo [11]: BLQ | solubility at 24 h ([7]; Tris HCl buffer): 0.4 mg/mL | eAUC20m–6h (AcHz) [8]: BLQ ^d
SMILES: Cl.O=C(NNC(=O)c1ccncc1)OCc1ccccc1 [prodrug 1h]

logD [1]: 0.9 | chemical stability, pH (3.0): percentage of parent remaining [2]: 98.17% | chemical stability, pH (7.6): percentage of parent remaining [2]: 100.0% | % of prodrug remaining at 20 h, mice plasma [3]: 13.2% | eAUC20m–20h in mice plasma, prodrug [3]: 382 ± 302 ng·h/mL | eAUC20m–20h in human plasma, prodrug [4]: 854 ± 615 ng·h/mL | chemical stability, DMSO: percentage of parent remaining [5]: 100.0% | solubility at 24 h ([7]; Tris HCl buffer): 29.3 mg/mL | eAUC20m–6h (AcHz) [8]: BLQ ^d
SMILES: CC(C)COC(=O)NNC(=O)c1ccncc1.Cl [prodrug 1f]

logD [1]: 0.2 | chemical stability, pH (3.0): percentage of parent remaining [2]: 96.9% | chemical stability, pH (7.6): percentage of parent remaining [2]: 100.0% | % of prodrug remaining at 20 h, mice plasma [3]: highly labile and BLQ | eAUC20m–20h in mice plasma, prodrug [3]: 168 ± 91 ng·h/mL | % of prodrug remaining at 20 h, human plasma [4]: significant lability and BLQ | eAUC20m–20h in human plasma, prodrug [4]: 530 ± 316 ng·h/mL | chemical stability, DMSO: percentage of parent remaining [5]: 100.0% | solubility at 24 h ([7]; Tris HCl buffer): 402 mg/mL | eAUC20m–6h (AcHz) [8]: BLQ ^d
SMILES: C=CCOC(=O)NNC(=O)c1ccncc1.Cl [prodrug 1g]

Second part, the molecule before the results:

SMILES: COC(=O)NNC(=O)c1ccncc1.Cl [prodrug 1a]
eAUC0–20h in stomach homogenate, prodrug [9]: 412,453 ng·h/mL | percentage of prodrug remaining after 20 h of incubation, stomach homogenate [9]: 1% | eAUC0–20h in intestinal homogenate, prodrug [10]: 908,764 ng·h/mL | percentage of prodrug remaining after 20 h of incubation, intestine homogenate [10]: 85% | logD [1]: -0.2 | chemical stability, pH (3.0): percentage of parent remaining [2]: 100.0% | chemical stability, pH (7.6): percentage of parent remaining [2]: 100.0% | % of prodrug remaining at 20 h, mice plasma [3]: 70.5% | eAUC20m–20h in mice plasma, prodrug [3]: 1650 ± 930 ng·h/mL | % of prodrug remaining at 20 h, human plasma [4]: 40.1% | eAUC20m–20h in human plasma, prodrug [4]: 1418 ± 824 ng·h/mL | chemical stability, DMSO: percentage of parent remaining [5]: 100.0% | plasma concentration of AcINH at 20 min [6]: BLQ | plasma concentration of in vivo released free INH at 20 min [6]: BLQ | plasma eAUC20m–120m (AcINH) [6]: BLQ ^d | plasma eAUC20m–120m (INH) [6]: BLQ ^d | concentration at 0.33 h [11]: 148000 ng/mL | concentration at 1 h [11]: 63200 ng/mL | concentration at 2 h [11]: 31400 ng/mL | concentration at 4 h [11]: 1400 ng/mL | concentration at 6 h [11]: 571 ng/mL | concentration at 24 h [11]: 208 ng/mL | plasma concentration of free INH (mean) ([11]; 1 h): BLQ | plasma concentration of released AcINH (mean) ([11]; 1 h): BLQ | plasma concentration of free INH (mean) ([11]; 2 h): BLQ | plasma concentration of released AcINH (mean) ([11]; 2 h): BLQ | plasma concentration of free INH (mean) ([11]; 4 h): BLQ | plasma concentration of released AcINH (mean) ([11]; 4 h): BLQ | plasma concentration of released INA (mean) ([11]; 4 h): BLQ | plasma concentration of free INH (mean) ([11]; 6 h): BLQ | plasma concentration of released AcINH (mean) ([11]; 6 h): BLQ | plasma concentration of released INA (mean) ([11]; 6 h): BLQ | plasma concentration of free INH (mean) ([11]; 24 h): BLQ | plasma concentration of released AcINH (mean) ([11]; 24 h): BLQ | plasma concentration of released INA (mean) ([11]; 24 h): BLQ | Vd, unchanged prodrug [11]: 0.077 ± 0.004 L/kg | plasma level of AcHz formed in vivo [11]: BLQ | solubility at 24 h ([7]; Tris HCl buffer): 213 mg/mL | eAUC20m–6h (AcHz) [8]: BLQ ^d

SMILES: CCCOC(=O)NNC(=O)c1ccncc1.Cl [prodrug 1c]
logD [1]: 0.2 | chemical stability, pH (7.6): percentage of parent remaining [2]: 100.0% | eAUC20m–20h in mice plasma, prodrug [3]: 551 ± 81 ng·h/mL | eAUC20m–20h in human plasma, prodrug [4]: 860 ± 131 ng·h/mL | chemical stability, DMSO: percentage of parent remaining [5]: 100.0% | plasma concentration of AcINH at 20 min [6]: BLQ | plasma concentration of in vivo released free INH at 20 min [6]: BLQ | plasma eAUC20m–120m (AcINH) [6]: BLQ ^d | plasma eAUC20m–120m (INH) ([6]; 10 mg/kg): BLQ and BLQ ^d | solubility at 24 h ([7]; Tris HCl buffer): 86 mg/mL | eAUC20m–6h (AcHz) [8]: BLQ ^d

SMILES: CCC(C)OC(=O)NNC(=O)c1ccncc1.Cl (stereo not shown) [prodrug 1i]
logD [1]: 0.8 | chemical stability, pH (3.0): percentage of parent remaining [2]: 100.0% | chemical stability, pH (7.6): percentage of parent remaining [2]: 98.3% | % of prodrug remaining at 20 h, mice plasma [3]: 63.8% | eAUC20m–20h in mice plasma, prodrug [3]: 1486 ± 35 ng·h/mL | % of prodrug remaining at 20 h, human plasma [4]: 89.1% | eAUC20m–20h in human plasma, prodrug [4]: 2788 ± 217 ng·h/mL | chemical stability, DMSO: percentage of parent remaining [5]: 100.0% | plasma concentration of AcINH at 20 min [6]: BLQ | plasma eAUC20m–120m (AcINH) ([6]; 10 mg/kg): BLQ and below the limit of quantification and BLQ ^d | solubility at 24 h ([7]; Tris HCl buffer): 111 mg/mL

SMILES: Cl.O=C(NNC(=O)c1ccncc1)Oc1ccccc1 [prodrug 1j]
logD [1]: 0.9 | chemical stability, pH (3.0): percentage of parent remaining [2]: 94.6% | chemical stability, pH (7.6): percentage of parent remaining [2]: 58.2% | % of prodrug remaining at 20 h, mice plasma [3]: 85.5% | eAUC20m–20h in mice plasma, prodrug [3]: 7347 ± 655 ng·h/mL | % of prodrug remaining at 20 h, human plasma [4]: below the quantification limit and BLQ | eAUC20m–20h in human plasma, prodrug [4]: 752 ± 355 ng·h/mL | chemical stability, DMSO: percentage of parent remaining [5]: 100.0% | plasma concentration of AcINH at 20 min [6]: BLQ | plasma eAUC20m–120m (AcINH) [6]: BLQ ^d | solubility at 24 h [7]: 12.4 mg/mL
